Measured values from patent US6774143B1, “Method for treating cells resistant to antineoplastic agents” (Novartis AG, priority 2003, dated 2004).

Assays:
[1] = test system: Raf-1; experiment: Western blot, Raf-1 phosphorylation; assay type: cell-based, human
Description: Cells are plated at a density of 1.5×10^6 cells per 100 mm plate. The next day cells are treated with vehicle control (0.1% DMSO) or test compound for 24 h. Cells are harvested by washing monolayers twice with PBS, then lysing with 300 ul of lysis buffer[20 mM Tris (pH 8.0), […], 100 mM NaCl, 0.5% NP40, 0.0125% DOC, 2.5% glycerol, 1 mM vanadate, 25 mM sodium fluoride and protease inhibitor cocktail (1:500 dilution, Sigma)]. Lysates were spun at 12,000× g and the supernatant transferred to a new tube. Protein concentration of the lysates is determined using BCA protein assay Reagent (Pierce). Samples (75 μg) are resolved by SDS-PAGE on a 7.5% or 14% tris-glycine gel for Raf-1 and Bcl-xL, respectively, and transferred to nitrocellulose. Immunodetection is performed as described by Amersham Vistra Fluorescence Western blotting Kit directions with the following modifications: the membrane is blocked with 5% milk (Carnation Non-Fat Dry Milk) in buffer containing 20 mM Tris-HCl (pH=7.4), 100 mM NaCl, and 0.2% Tween 20 (TBST) overnight and is subsequently incubated for 2 h with primary antibody (Santa Cruz C-12 for Raf-1 and Santa Cruz H-62 for Bcl-xL), followed by fluorescein-linked anti-rabbit Ig in 5% milk and anti-fluorescein alkaline phosphatase conjugate in TBST at 1:500 and 1:2000 dilutions, respectively. A Storm 860 (Molecular Dynamics) is used to detect fluorescent product according to the manufacturer's instructions.

[2] = test system: HCT-15 human colon tumor xenograft; experiment: Subcutaneous HCT-15 colon tumor model in athymic nude mice; assay type: in vivo; settings: for body weight losses, highest reached: 2.5-15 mg/kg
Excerpt: All cell lines that are used in animal studies are free of Mycoplasma contamination (Rapid Detection System by Gen-Probe, Inc., San Diego, Calif.) and viral contamination (MAP testing by MA BioServices, Inc., Rockville, Md.). The HCT-15 human colon tumor cell line is purchased from the American Type Culture Collection, Rockville, Md., Accession Number ATCC CCL 225. The MIP 101 human colon tumor cell line is obtained from Dr. R. Kramer (Bristol Meyers Squibb) and was previously described (Niles R M, et al. Cancer Invest. 1987;5(6):545-52). These cells are Pgp-1 (human Pgp) overexpressors, making the cells resistant to paclitaxel. All cell lines are propagated and expanded in RPMI 1640 medium containing 10% heat-inactivated FBS (Life Technologies, Grand Island, N.Y.). Cell expansions for implantation are performed in T225 tissue culture flasks. Cells are harvested at 70-90% confluency, washed once with HBSS containing 10% FBS, and are suspended in plain HBSS.
Outbred athymic (nu/nu) female mice (“Hsd:Athymic Nude-nu” from Harlan Sprague Dawley, Indianapolis, Ind.) are anesthetized with Metofane (Mallinckrodt Veterinary, Inc., Mundelein, Ill.,). A cell suspension (100 μL) containing 1×10^6 cells is then injected sc into the right axillary (lateral) region of each animal. Tumors are allowed to grow until a volume of approximately 100 mm^3 was achieved. At this point, mice bearing tumors are sorted into groups of eight for the study. The sorting process produced groups balanced with respect to mean and range of tumor size.
Discodermolide is isolated from the sponge Discodermia dissoluta using the methods of (Gunasekera S P, et al. supra). Multiple batches of compound of similar purity (all>95% pure, as determined by mass spectrometry, and nuclear magnetic resonance analysis) are used throughout the various studies. Solid discodermolide is dissolved in pure ethanol to create a stock solution which is diluted just before dosing with Cremophor EL (Crm) and D5W to a final concentration of 16.7% Cremophor EL, 8.3% ethanol and 75% D5W. The compound is administered intravenously (iv). In the first study discodermolide is tested against both tumors at five different dosing schedules: (i.) 30 mg/kg dosed as two 15 mg/kg injections on day 1 of the experiment, (ii.) 30 mg/kg dosed as three 10 mg/kg injections on days 1, 2, and 3, (iii.) 15 mg/kg dosed as a single injection on day 1, (iv.) 20 mg/kg dosed as a 15 mg/kg injection on day 1, followed by a 5 mg/kg injection on day 11, and (v.) 10 mg/kg dosed as a 7.5 mg/kg injection on day 1 followed by a 2.5 mg/kg injection on day 11. In the second study discodermolide is dosed as one injection on the first day of the experiment, at 2.5 mg/kg, 5 mg/kg, 7.5 mg/kg, 10 mg/kg, 12.5 mg/kg, or 15 mg/kg. In addition the 7.5 mg/kg injection on day 1 followed by a 2.5 mg/kg injection on day 11 is repeated from the first study. The actual doses, regimens and routes of administration used for the specific models are discussed in each section separately. Positive control animals receive clinical formulations of paclitaxel (TAXOL) diluted 4-fold with D5W and administered iv once daily for five consecutive days. Vehicle control for paclitaxel is administered according to paclitaxel's schedule. In the first study vehicle controls for discodermolide (16.7% Cremophor EL, 8.3% ethanol and 75% D5W) are administered as three daily injections on days 1, 2, and 3, or as two injections on days 1, and 11. In the second study vehicle control for discodermolide is administered as a single injection on day 1.
Tumors are measured, and individual animal body weights are recorded once weekly. Standard experiments are conducted for 3 full weeks from the initial dosing.
Antitumor activity is expressed as % T/C (comparing Δ tumor volumes for treatment group to vehicle control group). […]

[3] = MDA-MB-435 cells, 24 hour treatment
[4] = first study, 7.5 mg/kg day 1 + 2.5 mg/kg day 11
[5] = first study, discodermolide iv single 15 mg/kg injection on day 1
[6] = first study, two 15 mg/kg injections on day 1 (30 mg/kg total)
[7] = second study, 7.5 mg/kg day 1 + 2.5 mg/kg day 11

SMILES: C=C/C=C\[C@H](C)[C@H](OC(N)=O)[C@@H](C)[C@H](O)[C@@H](C)C/C(C)=C\[C@H](C)[C@@H](O)[C@@H](C)/C=C\[C@@H](O)C[C@@H]1OC(=O)[C@H](C)[C@@H](O)[C@H]1C [discodermolide, (+)-Discodermolide]
- Raf-1 phosphorylation ([1]; 1A9 parental cells): phosphorylated
- Raf-1 phosphorylation ([1]; A549 cells, 24 hour treatment): phosphorylated
- Raf-1 phosphorylation [1, 3]: phosphorylated
- Raf-1 phosphorylation ([1]; PTX-22 cells): phosphorylated
- inhibition of tumor growth (in words) ([2]; HCT-15 xenograft, athymic nude mice): statistically significant (p<0.01) and reproducible inhibition of tumor growth
- T/C [2, 4]: 31%
- body weight loss [2, 4]: 17.3%
- fate of the remaining four animals ([2]; first study, 15 mg/kg day 1 + 5 mg/kg day 11): sacrificed due to the excessive body weight loss
- animals that die in the second week ([2]; first study, 15 mg/kg day 1 + 5 mg/kg day 11, group of eight): Four animals
- fate of the animals ([2]; first study, 30 mg/kg as three 10 mg/kg injections on days 1, 2, 3, all animals): sacrificed in the beginning of the third week of the experiment due to excessive body weight loss
- T/C [2, 5]: 43%
- body weight loss [2, 5]: 18.9%
- T/C [2, 6]: 22%
- body weight loss [2, 6]: 24.6%
- body weight losses, highest reached ([2]; original dose response study (second)): 13%
- body weight losses, highest reached ([2]; repeat of the dose response study (third experiment)): 23%
- T/C [2, 7]: 29%
- body weight loss [2, 7]: 11.4%
- T/C ([2]; second study, single injection 2.5 mg/kg day 1): 62%
- body weight change ([2]; second study, single injection 2.5 mg/kg, gain): 3.5%
- body weight change ([2]; second study, single injection 5 mg/kg): −1.9%
- T/C ([2]; second study, single injection 5 mg/kg day 1): 44%
- body weight change ([2]; second study, single injection 7.5 mg/kg): −7.9%
- T/C ([2]; second study, single injection 7.5 mg/kg day 1): 43%
- body weight change ([2]; second study, single injection 10 mg/kg): −8.5%
- T/C ([2]; second study, single injection 10 mg/kg day 1): 40%
- body weight change ([2]; second study, single injection 12.5 mg/kg): −12.9%
- T/C ([2]; second study, single injection 12.5 mg/kg day 1): 28%
- body weight change ([2]; second study, single injection 15 mg/kg): −11.0%
- T/C ([2]; second study, single injection 15 mg/kg day 1): 27%
- T/C ([2]; third study, single injection 2.5 mg/kg day 1): 54%
- body weight change ([2]; third study, single injection 2.5 mg/kg, gain): 1.7%
- body weight change ([2]; third study, single injection 5 mg/kg): −8.9%
- T/C ([2]; third study, single injection 5 mg/kg day 1): 43%
- body weight change ([2]; third study, single injection 7.5 mg/kg): −23.3%
- T/C ([2]; third study, single injection 7.5 mg/kg day 1): 23%
- body weight change ([2]; third study, single injection 10 mg/kg): −17.6%
- T/C ([2]; third study, single injection 10 mg/kg day 1): 27%
- body weight change ([2]; third study, single injection 12.5 mg/kg): −20.1%
- T/C ([2]; third study, single injection 12.5 mg/kg day 1): 25%
- body weight change ([2]; third study, single injection 15 mg/kg): −13.4%
- T/C ([2]; third study, single injection 15 mg/kg day 1): 19%

SMILES: CC(=O)O[C@H]1C(=O)[C@@]2(C)[C@H]([C@H](OC(=O)c3ccccc3)[C@]3(O)C[C@H](OC(=O)[C@H](O)[C@@H](NC(=O)c4ccccc4)c4ccccc4)C(C)=C1C3(C)C)[C@]1(OC(C)=O)CO[C@@H]1C[C@@H]2O [paclitaxel, reference compound]
- Raf-1 phosphorylation ([1]; 1A9 parental cells): phosphorylated
- Raf-1 phosphorylation ([1]; A549 cells, 24 hour treatment): phosphorylated
- Raf-1 phosphorylation [1, 3]: phosphorylated
- Raf-1 phosphorylation ([1]; PTX-22 cells): not observed
- T/C ([2]; first study, paclitaxel 15 mg/kg daily for the first 5 days): 95%
- T/C ([2]; second study, paclitaxel iv once daily for five days): 94%
- T/C ([2]; third study, paclitaxel iv once daily for five days): 81%
